Measured values reported in the NIST ThermoML archive (doi:10.1016/j.jct.2006.01.007).
± gives the expanded uncertainty stated by the source.

Assay: xn = mol fraction of the nth substance listed
Details: 101 kPa, Liquid; for speed of sound: Sing-around technique in a fixed-path interferometer

For CC(C)(C)O [2-methylpropan-2-ol] + O, the speed of sound (288.15 K, x2 = 0.9615) was 1613.7 ± 0.79 m/s, the mass density (288.15 K, x2 = 0.9615) was 980.2 ± 0.5 kg/m3 and the speed of sound (293.15 K, x2 = 0.9615) was 1612.4 ± 0.79 m/s. For the same compound, the mass density (293.15 K, x2 = 0.9615) was 978.4 ± 0.5 kg/m3, the speed of sound (298.15 K, x2 = 0.9615) was 1610 ± 0.79 m/s and the mass density (298.15 K, x2 = 0.9615) was 976.6 ± 0.5 kg/m3. It also gave a speed of sound (303.15 K, x2 = 0.9615) of 1606.5 ± 0.79 m/s, a mass density (303.15 K, x2 = 0.9615) of 973.6 ± 0.5 kg/m3 and a speed of sound (308.15 K, x2 = 0.9615) of 1602.5 ± 0.79 m/s. It also gave a mass density (308.15 K, x2 = 0.9615) of 971.5 ± 0.5 kg/m3, a speed of sound (313.15 K, x2 = 0.9615) of 1597 ± 0.79 m/s and a mass density (313.15 K, x2 = 0.9615) of 968.8 ± 0.5 kg/m3.
With C[S+](C)[O-] [dimethyl sulfoxide] + O the speed of sound (288.15 K, x1 = 0.0385) was 1555.2 ± 0.78 m/s, the mass density (288.15 K, x1 = 0.0385) was 1019.8 ± 0.5 kg/m3 and the speed of sound (293.15 K, x1 = 0.0385) was 1562.5 ± 0.78 m/s. The mass density (293.15 K, x1 = 0.0385) was 1018.1 ± 0.5 kg/m3, the speed of sound (298.15 K, x1 = 0.0385) was 1568.5 ± 0.78 m/s and the mass density (298.15 K, x1 = 0.0385) was 1016.2 ± 0.5 kg/m3. It also gave a speed of sound (303.15 K, x1 = 0.0385) of 1573.4 ± 0.78 m/s, a mass density (303.15 K, x1 = 0.0385) of 1014.4 ± 0.5 kg/m3 and a speed of sound (308.15 K, x1 = 0.0385) of 1577 ± 0.78 m/s. The mass density (308.15 K, x1 = 0.0385) was 1012.3 ± 0.5 kg/m3, the speed of sound (313.15 K, x1 = 0.0385) was 1579.4 ± 0.78 m/s and the mass density (313.15 K, x1 = 0.0385) was 1010.2 ± 0.5 kg/m3.
